# Measurements taken from USRE31731E, “Herbicidal 4-trifluoromethyl-4-nitrodiphenyl ethers” (priority 1978, dated 1984).
# Test system: Monocots
# Experiment: Herbicidal activity, preemergence, monocot weeds (Table II)
# Type: in vivo
# Settings: pre-emergence, 336 h, 2 lb./A., about 2 weeks, read-out: % control (percent of plants killed)
# How it was run: (§1)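 Value is mean percent kill, judged roughly 2 weeks post-treatment. Acetone/water spray at 50 gal/A, given either right after sowing in soil flats (preemergence) or once seedlings were 2 weeks old (postemergence); rates in lb/A.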
row,Structure (SMILES),pest or weed control at 2241.7 g/ha
1,C#CC(C)Oc1cc(Oc2ccc(C(F)(F)F)cc2Cl)ccc1[N+](=O)[O-] (centres unmarked) [Example 30],78%
2,"CCN(CC)c1cc(Oc2ccc(C(F)(F)F)cc2Cl)ccc1[N+](=O)[O-] [Example 21, 2-Chloro-α,α,α-trifluoro-p-tolyl-3-diethylamino-4-nitrophenyl ether]",79%
3,CSCCOc1cc(Oc2ccc(C(F)(F)F)cc2Cl)ccc1[N+](=O)[O-] [Example 40],88%

# Same assay, conditions: pre-emergence, 336 h, 4 lb./A., about 2 weeks, read-out: % control (percent of plants killed)
row,Structure (SMILES),pest or weed control at 4483.4 g/ha
1,C#CC(C)Oc1cc(Oc2ccc(C(F)(F)F)cc2Cl)ccc1[N+](=O)[O-] (centres unmarked) [Example 30],81%
2,"CCN(CC)c1cc(Oc2ccc(C(F)(F)F)cc2Cl)ccc1[N+](=O)[O-] [Example 21, 2-Chloro-α,α,α-trifluoro-p-tolyl-3-diethylamino-4-nitrophenyl ether]",91%
3,CSCCOc1cc(Oc2ccc(C(F)(F)F)cc2Cl)ccc1[N+](=O)[O-] [Example 40],86%

# Test system: Dicots
# Experiment: Herbicidal activity, preemergence, dicot weeds (Table II)
# Type: in vivo
# Settings: pre-emergence, 336 h, 2 lb./A., about 2 weeks, read-out: % control (percent of plants killed)
# How it was run: (§2)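 Plants were scored roughly 2 weeks post-treatment for percent kill (average percent control). Treatment was an acetone–water spray in 50 gal/acre carrier at the listed pounds per acre, applied either immediately after sowing or to 2-week-old seedlings.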
row,Structure (SMILES),pest or weed control at 2241.7 g/ha
1,C#CC(C)Oc1cc(Oc2ccc(C(F)(F)F)cc2Cl)ccc1[N+](=O)[O-] (centres unmarked) [Example 30],94%
2,"CCN(CC)c1cc(Oc2ccc(C(F)(F)F)cc2Cl)ccc1[N+](=O)[O-] [Example 21, 2-Chloro-α,α,α-trifluoro-p-tolyl-3-diethylamino-4-nitrophenyl ether]",90%
3,CSCCOc1cc(Oc2ccc(C(F)(F)F)cc2Cl)ccc1[N+](=O)[O-] [Example 40],98%

# Same assay, conditions: pre-emergence, 336 h, 4 lb./A., about 2 weeks, read-out: % control (percent of plants killed)
row,Structure (SMILES),pest or weed control at 4483.4 g/ha
1,C#CC(C)Oc1cc(Oc2ccc(C(F)(F)F)cc2Cl)ccc1[N+](=O)[O-] (centres unmarked) [Example 30],99%
2,"CCN(CC)c1cc(Oc2ccc(C(F)(F)F)cc2Cl)ccc1[N+](=O)[O-] [Example 21, 2-Chloro-α,α,α-trifluoro-p-tolyl-3-diethylamino-4-nitrophenyl ether]",99%
3,CSCCOc1cc(Oc2ccc(C(F)(F)F)cc2Cl)ccc1[N+](=O)[O-] [Example 40],92%

# Test system: Monocots
# Experiment: Herbicidal activity, postemergence, monocot weeds (Table II)
# Type: in vivo
# Settings: post-emergence, 336 h, 2 lb./A., about 2 weeks, read-out: % control (percent of plants killed)
# How it was run: as §1
row,Structure (SMILES),pest or weed control at 2241.7 g/ha
1,C#CC(C)Oc1cc(Oc2ccc(C(F)(F)F)cc2Cl)ccc1[N+](=O)[O-] (centres unmarked) [Example 30],91%
2,"CCN(CC)c1cc(Oc2ccc(C(F)(F)F)cc2Cl)ccc1[N+](=O)[O-] [Example 21, 2-Chloro-α,α,α-trifluoro-p-tolyl-3-diethylamino-4-nitrophenyl ether]",90%
3,CSCCOc1cc(Oc2ccc(C(F)(F)F)cc2Cl)ccc1[N+](=O)[O-] [Example 40],81%

# Same assay, conditions: post-emergence, 336 h, 4 lb./A., about 2 weeks, read-out: % control (percent of plants killed)
row,Structure (SMILES),pest or weed control at 4483.4 g/ha
1,C#CC(C)Oc1cc(Oc2ccc(C(F)(F)F)cc2Cl)ccc1[N+](=O)[O-] (centres unmarked) [Example 30],75%
2,"CCN(CC)c1cc(Oc2ccc(C(F)(F)F)cc2Cl)ccc1[N+](=O)[O-] [Example 21, 2-Chloro-α,α,α-trifluoro-p-tolyl-3-diethylamino-4-nitrophenyl ether]",74%
3,CSCCOc1cc(Oc2ccc(C(F)(F)F)cc2Cl)ccc1[N+](=O)[O-] [Example 40],64%

# Test system: Dicots
# Experiment: Herbicidal activity, postemergence, dicot weeds (Table II)
# Type: in vivo
# Settings: post-emergence, 336 h, 2 lb./A., about 2 weeks, read-out: % control (percent of plants killed)
# How it was run: as §2
row,Structure (SMILES),pest or weed control at 2241.7 g/ha
1,C#CC(C)Oc1cc(Oc2ccc(C(F)(F)F)cc2Cl)ccc1[N+](=O)[O-] (centres unmarked) [Example 30],100%
2,"CCN(CC)c1cc(Oc2ccc(C(F)(F)F)cc2Cl)ccc1[N+](=O)[O-] [Example 21, 2-Chloro-α,α,α-trifluoro-p-tolyl-3-diethylamino-4-nitrophenyl ether]",94%
3,CSCCOc1cc(Oc2ccc(C(F)(F)F)cc2Cl)ccc1[N+](=O)[O-] [Example 40],100%

# Same assay, conditions: post-emergence, 336 h, 4 lb./A., about 2 weeks, read-out: % control (percent of plants killed)
row,Structure (SMILES),pest or weed control at 4483.4 g/ha
1,C#CC(C)Oc1cc(Oc2ccc(C(F)(F)F)cc2Cl)ccc1[N+](=O)[O-] (centres unmarked) [Example 30],100%
2,"CCN(CC)c1cc(Oc2ccc(C(F)(F)F)cc2Cl)ccc1[N+](=O)[O-] [Example 21, 2-Chloro-α,α,α-trifluoro-p-tolyl-3-diethylamino-4-nitrophenyl ether]",96%
3,CSCCOc1cc(Oc2ccc(C(F)(F)F)cc2Cl)ccc1[N+](=O)[O-] [Example 40],100%

# Test system: corn
# Experiment: Crop tolerance, corn
# Type: in vivo
# Settings: postemergence; 50% or less kill of crop at rates giving more than 50% kill of weeds
# Description: (§3) The following test procedure is employed. Seeds of selected crops and weeds are planted in soil in flats. For preemergence tests, the flats are treated with the test compound immediately after the planting. For postemergence tests, the seeds are allowed to germinate, and after 2 weeks the flats are treated with the test compound. The compound to be evaluated is dissolved in acetone, diluted with water, and sprayed over the flats using a carrier volume equivalent to 50 gallons per acre at the rate of application (pounds per acre, lb/A.) specified in the tables. About 2 weeks after the application of the test compound, the state of growth of the plants is observed and the phytotoxic effect of the compound is evaluated. Table II gives the average percent control achieved by the test compounds in terms of the percent of the plants which are killed by the compounds.
# (§4) Following the general test procedure of Example 73, diphenyl ethers are evaluated for significant tolerance (as shown by 50% or less kill of the test crop at levels of application which give more than 50% kill of many or all of the weeds of Example 73) towards some or all of the following common agronomic crops (not all compounds tested against all crops): alfalfa, snapbeans, corn, cotton, cucumbers, peanuts, rape, rice, safflower, soybeans, tomatoes, and wheat.
row,Structure (SMILES),Tolerance to corn
1,"CCN(CC)c1cc(Oc2ccc(C(F)(F)F)cc2Cl)ccc1[N+](=O)[O-] [Example 21, 2-Chloro-α,α,α-trifluoro-p-tolyl-3-diethylamino-4-nitrophenyl ether]",Tolerance
2,CSCCOc1cc(Oc2ccc(C(F)(F)F)cc2Cl)ccc1[N+](=O)[O-] [Example 40],Tolerance

# Same assay, conditions: preemergence; 50% or less kill of crop at rates giving more than 50% kill of weeds
row,Structure (SMILES),Tolerance to corn
1,"CCN(CC)c1cc(Oc2ccc(C(F)(F)F)cc2Cl)ccc1[N+](=O)[O-] [Example 21, 2-Chloro-α,α,α-trifluoro-p-tolyl-3-diethylamino-4-nitrophenyl ether]",Tolerance
2,CSCCOc1cc(Oc2ccc(C(F)(F)F)cc2Cl)ccc1[N+](=O)[O-] [Example 40],Tolerance

# Test system: cotton
# Experiment: Crop tolerance, cotton
# Type: in vivo
# Settings: preemergence; 50% or less kill of crop at rates giving more than 50% kill of weeds
# Description: as §3, §4
row,Structure (SMILES),Tolerance to cotton
1,C#CC(C)Oc1cc(Oc2ccc(C(F)(F)F)cc2Cl)ccc1[N+](=O)[O-] (centres unmarked) [Example 30],Tolerance

# Test system: peanuts
# Experiment: Crop tolerance, peanuts
# Type: in vivo
# Settings: postemergence; 50% or less kill of crop at rates giving more than 50% kill of weeds
# Description: as §3, §4
row,Structure (SMILES),Tolerance to peanuts
1,CSCCOc1cc(Oc2ccc(C(F)(F)F)cc2Cl)ccc1[N+](=O)[O-] [Example 40],Tolerance

# Same assay, conditions: preemergence; 50% or less kill of crop at rates giving more than 50% kill of weeds
row,Structure (SMILES),Tolerance to peanuts
1,C#CC(C)Oc1cc(Oc2ccc(C(F)(F)F)cc2Cl)ccc1[N+](=O)[O-] (centres unmarked) [Example 30],Tolerance
2,"CCN(CC)c1cc(Oc2ccc(C(F)(F)F)cc2Cl)ccc1[N+](=O)[O-] [Example 21, 2-Chloro-α,α,α-trifluoro-p-tolyl-3-diethylamino-4-nitrophenyl ether]",Tolerance
3,CSCCOc1cc(Oc2ccc(C(F)(F)F)cc2Cl)ccc1[N+](=O)[O-] [Example 40],Tolerance

# Test system: rice
# Experiment: Crop tolerance, rice
# Type: in vivo
# Settings: postemergence or on transplanted rice; 50% or less kill of crop at rates giving more than 50% kill of weeds
# Description: as §3, §4
row,Structure (SMILES),Tolerance to rice
1,C#CC(C)Oc1cc(Oc2ccc(C(F)(F)F)cc2Cl)ccc1[N+](=O)[O-] (centres unmarked) [Example 30],Tolerance
2,CSCCOc1cc(Oc2ccc(C(F)(F)F)cc2Cl)ccc1[N+](=O)[O-] [Example 40],Tolerance

# Same assay, conditions: preemergence; 50% or less kill of crop at rates giving more than 50% kill of weeds
row,Structure (SMILES),Tolerance to rice
1,C#CC(C)Oc1cc(Oc2ccc(C(F)(F)F)cc2Cl)ccc1[N+](=O)[O-] (centres unmarked) [Example 30],Tolerance
2,"CCN(CC)c1cc(Oc2ccc(C(F)(F)F)cc2Cl)ccc1[N+](=O)[O-] [Example 21, 2-Chloro-α,α,α-trifluoro-p-tolyl-3-diethylamino-4-nitrophenyl ether]",Tolerance
3,CSCCOc1cc(Oc2ccc(C(F)(F)F)cc2Cl)ccc1[N+](=O)[O-] [Example 40],Tolerance

# Test system: soybeans
# Experiment: Crop tolerance, soybeans
# Type: in vivo
# Settings: preemergence; 50% or less kill of crop at rates giving more than 50% kill of weeds
# Description: as §3, §4
row,Structure (SMILES),Tolerance to soybeans
1,C#CC(C)Oc1cc(Oc2ccc(C(F)(F)F)cc2Cl)ccc1[N+](=O)[O-] (centres unmarked) [Example 30],Tolerance
2,"CCN(CC)c1cc(Oc2ccc(C(F)(F)F)cc2Cl)ccc1[N+](=O)[O-] [Example 21, 2-Chloro-α,α,α-trifluoro-p-tolyl-3-diethylamino-4-nitrophenyl ether]",Tolerance
3,CSCCOc1cc(Oc2ccc(C(F)(F)F)cc2Cl)ccc1[N+](=O)[O-] [Example 40],Tolerance

# Test system: wheat
# Experiment: Crop tolerance, wheat
# Type: in vivo
# Settings: postemergence; 50% or less kill of crop at rates giving more than 50% kill of weeds
# Description: as §3, §4
row,Structure (SMILES),Tolerance to wheat
1,C#CC(C)Oc1cc(Oc2ccc(C(F)(F)F)cc2Cl)ccc1[N+](=O)[O-] (centres unmarked) [Example 30],Tolerance
2,"CCN(CC)c1cc(Oc2ccc(C(F)(F)F)cc2Cl)ccc1[N+](=O)[O-] [Example 21, 2-Chloro-α,α,α-trifluoro-p-tolyl-3-diethylamino-4-nitrophenyl ether]",Tolerance

# Same assay, conditions: preemergence; 50% or less kill of crop at rates giving more than 50% kill of weeds
row,Structure (SMILES),Tolerance to wheat
1,CSCCOc1cc(Oc2ccc(C(F)(F)F)cc2Cl)ccc1[N+](=O)[O-] [Example 40],Tolerance
